Read-outs that look alike come from different tables or passages of the source.
Experiments:
Bevacizumab [1] = molecular target: T1, Bevacizumab (Homo sapiens, UniProt P01857); test: Microtiter plate chromatography of resins, Bevacizumab whole IgG (bound, yield, selectivity); type: binding, humanized
T1 construct: fused on or other part: humanised anti-VEGF-A VH domain N-terminal of the gamma-1 constant region (engineered, no UniProt entry)

Bevacizumab [2] = test: as above; type: binding, humanized
Bevacizumab Fab fragment = test: Microtiter plate chromatography of resins, Bevacizumab Fab fragment (bound); type: binding, humanized; settings: Bevacizumab Fab fragment
Protocol: (§1) Resins were assessed in packed mode by microtiter plate chromatography. For each column, approximately 30 μl of resin were transferred to a 384-well filter plate and sealed with appropriate top frits.
(§2) Columns were equilibrated with 6.7 column volumes (cv) of phosphate buffered saline (0.15 M NaCl, 20 mM sodium phosphate, pH 7.3; PBS) prior to injection. Either 3.3 cv of whole IgGs dissolved at 0.75 mg ml^−1, Fab or Fc fragments dissolved at 0.25 mg ml^−1 (all three in PBS) or host cell proteins (HCP) were injected onto columns. Antibody fragments of Bevacizumab (Fab and Fc) were prepared by cleavage of whole IgG with papain protease (3) according to the protocol of the manufacturer. […] Volumes transferred were spun through columns at 50 g for 1-2 min. During injection of samples, acceleration was reduced to 10 g and centrifugation time increased to 5-10 min. Effluent fractions were collected in 384-well plates and concentrations of protein analyzed by Bradford assay. Protein masses mi, mft and me (see below) were calculated as the product of fraction volume and measured protein concentration.
(§3) The fraction of ‘bound’ protein was calculated as the difference between the total mass of protein injected mi and the mass of protein detected in the flowthrough mft, divided by the total mass of protein injected.
(§4) the fraction of ‘bound’ protein and the ‘yield’ of protein were calculated for each resin based on data for whole IgG-antibodies. In the case of Bevacizumab fragments and host cell proteins, only the fraction of ‘bound’ protein is given. Selectivity of resins was calculated from data for Bevacizumab Whole IgG and host cell proteins. Due to limited experimental precision, selectivity was truncated beyond values of 10.

Tocilizumab = test: Microtiter plate chromatography of resins, Tocilizumab (bound, yield); type: binding, humanized
Bevacizumab Fc fragment = test: Microtiter plate chromatography of resins, Bevacizumab Fc fragment (bound); type: binding, humanized; settings: Bevacizumab Fc fragment
Protocol: as §1, §2, §3, §4

host cell proteins (HCP) = test: Microtiter plate chromatography of resins, host cell proteins (bound); type: binding, CHO
[3] = test system: human poly-IgG (h-poly-IgG); test: Microtiter plate chromatography of resins, human poly-IgG (bound, yield); type: binding
Palivizumab = test: Microtiter plate chromatography of resins, Palivizumab (bound, yield); type: binding, humanized
[4] = fraction of whole IgG Bevacizumab bound to resin
[5] = mass of whole IgG Bevacizumab eluted / mass injected
[6] = fraction of injected protein bound to resin

SMILES	Bevacizumab IgG Bound (%) (Bevacizumab [1]; [4])	Bevacizumab IgG Yield (%) (Bevacizumab [1]; [5])	Selectivity (Bevacizumab [2])	Bevacizumab Fab Bound (%) (Bevacizumab Fab fragment)	Tocilizumab Bound (%) (Tocilizumab)	Tocilizumab Yield (%) (Tocilizumab)	Bevacizumab Fc Bound (%) (Bevacizumab Fc fragment)	HCP Bound (%) (host cell proteins (HCP); host cell proteins)	h-poly-IgG Bound (%) [3]	h-poly-IgG Yield (%) [3]	Palivizumab Bound (%) (Palivizumab)	Palivizumab Yield (%) (Palivizumab)	also measured
COc1ccc(NC(=O)c2cc(-c3cc(Br)cs3)n(C)n2)cc1C(=O)NCCCN [Ligand L2, 5-[5-(4-Bromo-2-thienyl)-1-methylpyrazol-3-yl]carboxamido-2-methoxybenzoic acid N-(3-aminopropyl)amide]	100%	96%	1.7	100%	100%	91%	100%	59%	–	–	–	–	–
COc1ccc(NC(=O)c2cc(-c3ccsc3)n(C)n2)cc1C(=O)NCCCN [Ligand L8, 2-Methoxy-5-[1-methyl-5-(3-thienyl)pyrazol-3-yl]carboxamidobenzoic acid N-(3-aminopropyl)amide]	100%	96%	2.3	82%	100%	97%	99%	44%	100%	86%	100%	89%	–
COc1ccc(NC(=O)c2cc(-c3cccs3)n(C)n2)cc1C(=O)NCCCN [Ligand L6, 2-Methoxy-5-[1-methyl-5-(2-thienyl)pyrazol-3-yl]carboxamidobenzoic acid N-(3-aminopropyl)amide]	100%	100%	2.0	79%	100%	102%	100%	54%	94%	100%	98%	100%	–
COc1ccc(NC(=O)c2cncc(-c3cccs3)c2)cc1C(=O)NCCCN [Ligand L5, 2-Methoxy-5-[3-(2-thienyl)pyridin-5-yl]carboxamidobenzoic acid N-(3-aminopropyl)amide]	100%	96%	2.0	77%	100%	80%	84%	48%	97%	69%	71%	72%	–
COc1ccc(NC(=O)c2cc(-c3cccc(Cl)c3)n(C)n2)cc1C(=O)NCCCN [Ligand L7, 5-[5-(3-Chlorophenyl)-1-methylpyrazol-3-yl]carboxamido-2-methoxybenzoic acid N-(3-aminopropyl)amide]	100%	110%	1.4	–	92%	109%	–	70%	100%	91%	100%	99%	–
COc1ccc(NC(=O)c2cc(-c3ccco3)on2)cc1C(=O)NCCCN [Ligand L45, 5-[5-(2-Furyl)isoxazol-3-ylcarboxamido]-2-methoxybenzoic acid (3-amino-1-propyl)amide]	100%	82%	2.3	–	100%	100%	–	44%	100%	100%	100%	100%	–
COc1ccc(NC(=O)c2cn3ncccc3n2)cc1C(=O)NCCOCCOCC(=O)NCCCC[C@H](NC(=O)COCCOCCNC(=O)c1cc(NC(=O)c2cn3ncccc3n2)ccc1OC)C(=O)NCCCN [Ligand L62, (S)-2,6-Bis{8-[5-(Imidazo[1,2-b]pyridazin-2-ylcarboxamido)-2-methoxyphenylcarboxamido]-3,6-dioxaoctanoylamido}hexanoic acid (3-amino-1-propyl)amide]	100%	100%	–	–	95%	91%	–	3%	89%	89%	84%	77%	Selectivity (Bevacizumab [2]; fraction of bound Bevacizumab whole IgG / fraction of bound HCP, truncated beyond values of 10): 10.0
COc1ccc(NC(=O)c2cc(-c3csc(C)n3)on2)cc1C(=O)NCCCN [Ligand L42, 2-Methoxy-5-[5-(2-methylthiazol-4-yl)isoxazol-3-ylcarboxamido]benzoic acid (3-amino-1-propyl)amide]	100%	92%	3.1	–	100%	99%	–	32%	100%	100%	99%	99%	–
COc1ccc(NC(=O)c2cn3ccccc3n2)cc1C(=O)NCCCN [Ligand L57, 5-(Imidazo[1,2-a]pyridin-2-ylcarboxamido)-2-methoxybenzoic acid (3-amino-1-propyl)amide]	100%	90%	6.3	–	78%	78%	–	16%	53%	53%	44%	42%	–
COc1ccc(NC(=O)c2occ3ccccc23)cc1C(=O)NCCCN [Ligand L32, 5-(Benzo[c]furan-1-yl)carboxamido-2-methoxybenzoic acid N-(3-aminopropyl)amide]	100%	87%	2.0	–	100%	95%	–	49%	95%	74%	100%	95%	–
COc1ccc(NC(=O)c2cc(-c3ccco3)n(C)n2)cc1C(=O)NCCOCCOCC(=O)NCCOCCOCC(=O)NCCCN [Ligand L65, 8-{8-{5-[5-(2-Furyl)-1-methylpyrazol-3-ylcarboxamido]-2-methoxyphenylcarboxamido}-3,6-dioxaoctanoylamido}-3,6-dioxaoctanoic acid (3-amino-1-propyl)amide]	–	–	9.5	–	–	–	–	–	–	–	–	–	Bevacizumab IgG Bound (%) (Bevacizumab [1]; fraction of injected whole IgG bound to resin): 100%; Bevacizumab IgG Yield (%) (Bevacizumab [1]; mass eluted / mass injected, whole IgG): 100%; Tocilizumab Bound (%) (Tocilizumab; [6]): 74%; Tocilizumab Yield (%) (Tocilizumab; mass eluted / mass injected): 71%; h-poly-IgG Bound (%) [3, 6]: 67%; h-poly-IgG Yield (%) ([3]; mass eluted / mass injected): 67%; HCP Bound (%) (host cell proteins (HCP); fraction of injected host cell proteins bound to resin): 11%; Palivizumab Bound (%) (Palivizumab; [6]): 58%; Palivizumab Yield (%) (Palivizumab; mass eluted / mass injected): 58%
COc1ccc(NC(=O)c2n[nH]c3ccc(Cl)cc23)cc1C(=O)NCCCN [Ligand L4, 5-(5-Chloro-1H-indazol-3-yl)carboxamido-2-methoxybenzoic acid N-(3-aminopropyl)amide]	100%	98%	1.8	38%	100%	93%	100%	57%	100%	83%	100%	97%	–
